# What was measured:
# Assay type in all cases: in vivo
# [1] = tested on: green foxtail (Setaria viridis, SETVI); experiment: Greenhouse herbicide screen, pre-emerge application, phytotoxicity rating; settings: PRE emergent, 14 days after application, rating scale 0-100
# Summary of the method: (§1)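 Crop and weed responses were judged visually on a 0–100 scale two weeks post-treatment. Treatments: acetone solutions, 15–1000 g ai/ha, sprayed at 187 l/ha onto pre-emerge soil or 2–3-leaf plants.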
# [2] = tested on: velvetleaf (Abutilon theophrasti, ABUTH); experiment: as above; settings: PRE emergent, 14 days after application, rating scale 0-100
# Summary of the method: as §1
# [3] = tested on: large crabgrass (Digitaria sanguinalis, DIGSA); experiment: as above; settings: PRE emergent, 14 days after application, rating scale 0-100
# Summary of the method: as §1
# [4] = tested on: sicklepod (Cassia obtusifolia, CASOB); experiment: as above; settings: PRE emergent, 14 days after application, rating scale 0-100
# Summary of the method: as §1
# [5] = tested on: lambsquarters (Chenopodium album, CHEAL); experiment: as above; settings: PRE emergent, 14 days after application, rating scale 0-100
# Summary of the method: as §1
# [6] = tested on: barnyardgrass (Echinochloa crus-galli, ECHCG); experiment: as above; settings: PRE emergent, 14 days after application, rating scale 0-100
# Summary of the method: as §1
# [7] = tested on: johnsongrass (Sorghum halepense, SORHA); experiment: as above; settings: PRE emergent, 14 days after application, rating scale 0-100
# Summary of the method: as §1
# [8] = tested on: common ragweed (Ambrosia artemisiifolia L., AMBEL); experiment: as above; settings: PRE emergent, 14 days after application, rating scale 0-100
# Summary of the method: as §1
# [9] = tested on: redroot pigweed (Amaranthus retrofiexus, AMARE); experiment: as above; settings: PRE emergent, 14 days after application, rating scale 0-100
# Summary of the method: as §1
# [10] = tested on: cocklebur (Xanthium strumarium, XANST); experiment: as above; settings: PRE emergent, 14 days after application, rating scale 0-100
# Summary of the method: as §1
# [11] = tested on: ivyleaf morningglory (Ipomoea hederacea, IPOHE); experiment: as above; settings: PRE emergent, 14 days after application, rating scale 0-100
# Summary of the method: as §1
# [12] = tested on: green foxtail (Setaria viridis, SETVI); experiment: Greenhouse herbicide screen, post-emerge application, phytotoxicity rating; settings: POST emergent, 14 days after application, scale 0-100
# Summary of the method: as §1
# [13] = tested on: velvetleaf (Abutilon theophrasti, ABUTH); experiment: as above; settings: POST emergent, 14 days after application, scale 0-100
# Summary of the method: as §1
# [14] = tested on: large crabgrass (Digitaria sanguinalis, DIGSA); experiment: as above; settings: POST emergent, 14 days after application, scale 0-100
# Summary of the method: as §1
# [15] = tested on: sicklepod (Cassia obtusifolia, CASOB); experiment: as above; settings: POST emergent, 14 days after application, scale 0-100
# Summary of the method: as §1
# [16] = tested on: lambsquarters (Chenopodium album, CHEAL); experiment: as above; settings: POST emergent, 14 days after application, scale 0-100
# Summary of the method: as §1
# [17] = tested on: barnyardgrass (Echinochloa crus-galli, ECHCG); experiment: as above; settings: POST emergent, 14 days after application, scale 0-100
# Summary of the method: as §1
# [18] = tested on: johnsongrass (Sorghum halepense, SORHA); experiment: as above; settings: POST emergent, 14 days after application, scale 0-100
# Summary of the method: as §1
# [19] = tested on: common ragweed (Ambrosia artemisiifolia L., AMBEL); experiment: as above; settings: POST emergent, 14 days after application, scale 0-100
# Summary of the method: as §1
# [20] = tested on: redroot pigweed (Amaranthus retrofiexus, AMARE); experiment: as above; settings: POST emergent, 14 days after application
# Summary of the method: as §1
# [21] = tested on: cocklebur (Xanthium strumarium, XANST); experiment: as above; settings: POST emergent, 14 days after application, scale 0-100
# Summary of the method: as §1
# [22] = tested on: ivyleaf morningglory (Ipomoea hederacea, IPOHE); experiment: as above; settings: POST emergent, 14 days after application, scale 0-100
# Summary of the method: as §1
# [23] = tested on: upland rice (Oryza sp., var.Cocodrie, RICE); experiment: Greenhouse herbicide screen, pre-emerge application, crop damage rating; settings: PRE emergent, 14 days after application, rating scale 0-100
# Excerpt: (§2) A standard greenhouse herbicide activity screening system was used to evaluate the herbicidal efficacy and crop safety of these test compounds. Seven broadleaf weed species including redroot pigweed (Amaranthus retrofiexus, AMARE), velvetleaf (Abutilon theophrasti, ABUTH), sicklepod (Cassia obtusifolia, CASOB), ivyleaf morningglory (Ipomoea hederacea, IPOHE), lambsquarters (Chenopodium album, CHEAL), common ragweed (Ambrosia artemisiifolia L., AMBEL), and cocklebur (Xanthium strumarium, XANST) were used as test species. Four grass weed species including green foxtail (Setaria viridis, SETVI), barnyardgrass (Echinochloa crus-galli, ECHCG), johnsongrass (Sorghum halepense, SORHA), and large crabgrass (Digitaria sanguinalis, DIGSA) were also used. In addition, four crop species, field corn (Zea mays L., var. Dekalb 535, CORN), soybean (Glycine max L., var. Pella 86, SOY), upland rice (Oryza sp., var.Cocodrie, RICE) and wheat (Triticum aestivum L.) were included.
# (§3) All plants were grown in 10 cm square plastic pots which were filled with a sandy loam soil mix. For pre-emerge tests, seeds were planted one day prior to application of the test compounds. For post-emerge tests, seeds were planted 8-21 days prior to the test to allow emergence and good foliage development prior to application of the test substances. At the time of the post-emerge application, plants of all species were usually at the 2-3 leaf stage of development.
# (§4) All test compounds were dissolved in acetone and applied to the test units in a volume of 187 l/ha. Test materials were applied at rates ranging from 15 g ai/ha to 1000 g ai/ha using a track sprayer equipped with a TJ8001E even flow flat fan spray nozzle. Plants were arranged on a shelf so that the top of the canopy (post-emerge) or top of the soil surface (pre-emerge) was 40-45 cm below the nozzle. Pressurized air was used to force the test solution through the nozzle as it was mechanically advanced (via electrically driven chain drive) over the top of all test plants/pots. This application simulates a typical commercial field herbicide application.
# (§5) Pre-emergence tests were top watered immediately after treatment to incorporate the test materials, then routinely top-watered for normal growth. Post-emerge test units were always bottom-watered.
# (§6) At 14 days after application of the test materials, phytotoxicity ratings were recorded. A rating scale of 0-100 was used as previously described in Research Methods in Weed Science, 2nd edition, B. Truelove, Ed., Southern Weed Science Society, Auburn University, Auburn, Ala., 1977. Briefly, “0” corresponds to no damage and “100” corresponds to complete death of all plants in the test unit. This scale was used both to determine efficacy against weed species and damage to crop species. Herbicide activity data for various compounds of this invention, which are shown by compound No. in Tables 1-12, are shown in Tables 13 and 14.
# [24] = tested on: field corn (Zea mays L., var. Dekalb 535, CORN); experiment: as above; settings: PRE emergent, 14 days after application, rating scale 0-100
# Excerpt: as §2, §3, §4, §5, §6
# [25] = tested on: upland rice (Oryza sp., var.Cocodrie, RICE); experiment: Greenhouse herbicide screen, post-emerge application, crop damage rating; settings: POST emergent, 14 days after application, scale 0-100
# Excerpt: as §2, §3, §4, §5, §6
# [26] = tested on: field corn (Zea mays L., var. Dekalb 535, CORN); experiment: as above; settings: POST emergent, 14 days after application, scale 0-100
# Excerpt: as §2, §3, §4, §5, §6
structure (smiles),measurement,setting,value
CC1CCCC(C)N1NC(=O)c1cc(-n2c(=O)cc(C(F)(F)F)n(C)c2=S)c(F)cc1Cl (stereo not shown) [Compound 1-15],phytotoxicity rating SETVI,[1]; 63 g ai/ha,100
same,phytotoxicity rating SETVI,[1]; 250 g ai/ha,100
same,phytotoxicity rating ABUTH,[2]; 63 g ai/ha,100
same,phytotoxicity rating ABUTH,[2]; 250 g ai/ha,100
same,phytotoxicity rating DIGSA,[3]; 63 g ai/ha,100
same,phytotoxicity rating DIGSA,[3]; 250 g ai/ha,100
same,phytotoxicity rating CASOB,[4]; 63 g ai/ha,45
same,phytotoxicity rating CASOB,[4]; 250 g ai/ha,90
same,phytotoxicity rating CHEAL,[5]; 63 g ai/ha,100
same,phytotoxicity rating CHEAL,[5]; 250 g ai/ha,100
same,phytotoxicity rating ECHCG,[6]; 63 g ai/ha,75
same,phytotoxicity rating ECHCG,[6]; 250 g ai/ha,100
same,phytotoxicity rating SORHA,[7]; 63 g ai/ha,100
same,phytotoxicity rating SORHA,[7]; 250 g ai/ha,100
same,phytotoxicity rating AMBEL,[8]; 63 g ai/ha,100
same,phytotoxicity rating AMBEL,[8]; 250 g ai/ha,100
same,phytotoxicity rating AMARE,[9]; 63 g ai/ha,100
same,phytotoxicity rating AMARE,[9]; 250 g ai/ha,100
same,phytotoxicity rating XANST,[10]; 63 g ai/ha,75
same,phytotoxicity rating XANST,[10]; 250 g ai/ha,100
same,phytotoxicity rating IPOHE,[11]; 63 g ai/ha,100
same,phytotoxicity rating IPOHE,[11]; 250 g ai/ha,100
same,phytotoxicity rating SETVI,[12]; 63 g ai/ha,20
same,phytotoxicity rating SETVI,[12]; 250 g ai/ha,55
same,phytotoxicity rating ABUTH,[13]; 63 g ai/ha,100
same,phytotoxicity rating ABUTH,[13]; 250 g ai/ha,100
same,phytotoxicity rating DIGSA,[14]; 63 g ai/ha,10
same,phytotoxicity rating DIGSA,[14]; 250 g ai/ha,10
same,phytotoxicity rating CASOB,[15]; 63 g ai/ha,70
same,phytotoxicity rating CASOB,[15]; 250 g ai/ha,75
same,phytotoxicity rating CHEAL,[16]; 63 g ai/ha,98
same,phytotoxicity rating CHEAL,[16]; 250 g ai/ha,100
same,phytotoxicity rating ECHCO,[17]; 63 g ai/ha,50
same,phytotoxicity rating ECHCO,[17]; 250 g ai/ha,80
same,phytotoxicity rating SORHA,[18]; 63 g ai/ha,0
same,phytotoxicity rating SORHA,[18]; 250 g ai/ha,30
same,phytotoxicity rating AMBEL,[19]; 63 g ai/ha,80
same,phytotoxicity rating AMBEL,[19]; 250 g ai/ha,95
same,phytotoxicity rating AMARE,"[20]; 63 g ai/ha, scale 0-100 (0 no damage, 100 complete death)",90
same,phytotoxicity rating AMARE,"[20]; 250 g ai/ha, scale 0-100",100
same,phytotoxicity rating XANST,[21]; 63 g ai/ha,100
same,phytotoxicity rating XANST,[21]; 250 g ai/ha,100
same,phytotoxicity rating IPOHE,[22]; 63 g ai/ha,75
same,phytotoxicity rating IPOHE,[22]; 250 g ai/ha,100
same,crop damage rating RICE,[23]; 63 g ai/ha,55
same,crop damage rating RICE,[23]; 250 g ai/ha,70
same,crop damage rating CORN,[24]; 63 g ai/ha,25
same,crop damage rating CORN,[24]; 250 g ai/ha,100
same,crop damage rating RICE,[25]; 63 g ai/ha,0
same,crop damage rating RICE,[25]; 250 g ai/ha,30
same,crop damage rating CORN,[26]; 63 g ai/ha,40
same,crop damage rating CORN,[26]; 250 g ai/ha,60

# — patent publication US6770597B2, “Benzohydrazide derivatives as herbicides and desiccant compositions containing them” (Ishihara Sangyo Kaisha, Ltd., priority 2002, dated 2004)
